Assay results published in patent US20240360113A1, “AMINOARYL-INTEGRIN AGONISTS COMPOUNDS” (Texas Heart Institute, priority 2021, published 2024).

What was measured:
[1] = target: T1, α4β1/VCAM-1 (Homo sapiens, UniProt P05556+P13612); experiment: Static cell adhesion assay, Jurkat cells on VCAM-1 (VLA-4 agonist activity); type: cell-based; settings: EC50 relative to THI0349 (average 11 uM) run on the same plate; Jurkat cells, 50% FBS
T1 construct: The Jurkat (VCAM-1 assays) and HSB (ICAM-1 assays) cell lines were obtained from American Type Culture Collection; endogenous in cells; host or cells: Jurkat (ATCC)
T1 sequence (P13612 34-1032): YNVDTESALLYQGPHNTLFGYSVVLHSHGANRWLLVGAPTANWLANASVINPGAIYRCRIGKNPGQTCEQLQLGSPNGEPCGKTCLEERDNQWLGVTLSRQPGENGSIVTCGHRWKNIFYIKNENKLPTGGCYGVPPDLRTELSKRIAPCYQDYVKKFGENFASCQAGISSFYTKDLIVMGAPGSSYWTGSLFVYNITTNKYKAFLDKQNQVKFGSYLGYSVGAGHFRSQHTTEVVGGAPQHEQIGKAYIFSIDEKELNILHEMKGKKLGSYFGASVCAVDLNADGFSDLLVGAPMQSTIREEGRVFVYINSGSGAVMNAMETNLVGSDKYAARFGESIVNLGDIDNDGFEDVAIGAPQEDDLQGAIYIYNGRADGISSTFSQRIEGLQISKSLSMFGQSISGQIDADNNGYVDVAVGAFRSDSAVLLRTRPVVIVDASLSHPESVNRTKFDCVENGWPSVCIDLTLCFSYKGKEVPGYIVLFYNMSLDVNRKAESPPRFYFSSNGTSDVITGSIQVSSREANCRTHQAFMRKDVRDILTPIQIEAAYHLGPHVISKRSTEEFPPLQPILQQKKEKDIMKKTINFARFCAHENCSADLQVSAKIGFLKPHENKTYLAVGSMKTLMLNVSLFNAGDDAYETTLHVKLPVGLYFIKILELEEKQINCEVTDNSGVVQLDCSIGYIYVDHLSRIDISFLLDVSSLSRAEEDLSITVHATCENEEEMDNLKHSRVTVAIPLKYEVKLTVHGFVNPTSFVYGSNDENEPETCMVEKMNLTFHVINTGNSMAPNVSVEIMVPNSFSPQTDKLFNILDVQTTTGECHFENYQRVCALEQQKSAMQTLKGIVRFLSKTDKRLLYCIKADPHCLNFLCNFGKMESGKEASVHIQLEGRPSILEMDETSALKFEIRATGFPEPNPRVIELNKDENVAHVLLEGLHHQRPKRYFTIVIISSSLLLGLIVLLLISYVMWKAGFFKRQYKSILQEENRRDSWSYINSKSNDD
T1 sequence (P05556 21-798): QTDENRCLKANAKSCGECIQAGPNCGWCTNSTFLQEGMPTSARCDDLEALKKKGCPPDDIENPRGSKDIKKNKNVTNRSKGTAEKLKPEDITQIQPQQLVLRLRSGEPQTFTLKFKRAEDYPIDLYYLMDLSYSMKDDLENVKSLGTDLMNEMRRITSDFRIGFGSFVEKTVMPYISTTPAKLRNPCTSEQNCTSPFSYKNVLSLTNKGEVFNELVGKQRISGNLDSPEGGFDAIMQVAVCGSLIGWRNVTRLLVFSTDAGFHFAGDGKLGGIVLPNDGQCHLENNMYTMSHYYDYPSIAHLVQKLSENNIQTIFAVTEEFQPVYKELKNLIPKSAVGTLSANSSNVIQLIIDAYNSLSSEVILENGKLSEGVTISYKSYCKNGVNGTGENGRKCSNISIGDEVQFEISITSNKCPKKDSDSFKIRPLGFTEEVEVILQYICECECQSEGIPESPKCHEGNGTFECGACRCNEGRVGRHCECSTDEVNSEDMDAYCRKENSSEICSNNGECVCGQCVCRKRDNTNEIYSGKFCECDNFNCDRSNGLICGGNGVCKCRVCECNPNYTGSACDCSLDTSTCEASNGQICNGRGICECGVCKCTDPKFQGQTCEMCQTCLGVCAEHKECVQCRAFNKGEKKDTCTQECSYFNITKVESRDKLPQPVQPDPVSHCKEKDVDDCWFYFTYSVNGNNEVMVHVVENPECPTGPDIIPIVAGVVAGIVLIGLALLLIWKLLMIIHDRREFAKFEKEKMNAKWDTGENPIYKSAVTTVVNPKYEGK
Description: (§1) For in vitro cell adhesion assays, compounds were dissolved in DMSO to make a series of stock solutions such that a 1:100 dilution in assay buffer would yield the desired final working concentrations in 1% DMSO (vehicle). Human VCAM-1 and ICAM-1 were purchased from R&D Systems (Minneapolis, MN). The Jurkat (VCAM-1 assays) and HSB (ICAM-1 assays) cell lines were obtained from American Type Culture Collection (Manassas, VA) and were maintained in recommended culture media.
(§2) Assays were performed as previously described in Vanderslice et al., (2010), Biochem Biophys Res Commun 400, 619-624; and Vanderslice et al., (2013) J Biol Chem 288, 19414-19428. VCAM-1 or ICAM-1 ligand in 50 μL of 50 mM Tris-HCl (pH 7.4), 150 mM NaCl, (TBS) was added to wells of a 96-well plate and allowed to coat overnight at 4° C. To maximize the window to evaluate agonist activity, a sub-optimal coating concentration of ligand was used, typically 0.5 and 5 μg/mL in 50 μL TBS for VCAM-1 and ICAM-1 respectively. This ligand concentration corresponded approximately to that which would yield <5% adhesion as determined by dose-response curves. Briefly, 2×10^6 cells were labeled for 30 minutes with calcein-AM (Molecular Probes), washed, resuspended in binding buffer, and added to triplicate wells of ligand-coated plates (2×10^5 cells/well) that had been blocked with 2% BSA. After a 30-minute incubation at 37° C., the plates were washed 3 times with binding buffer, the adherent cells were lysed, and fluorescence was measured on a Tecan Safire^2 plate reader. The binding buffer was PBS with 1 mM MgCl2, 50% FBS for α4β1/VCAM-1 assays and PBS with 2 mM MgCl2, 5 mM EGTA, 50% FBS for αLβ2/ICAM-1 assays. EC50 is defined as the concentration of compound required to achieve 50% of the maximal response.

[2] = target: T2, αLβ2/ICAM-1 (Homo sapiens, UniProt P05107+P20701); experiment: Static cell adhesion assay, HSB cells on ICAM-1 (LFA-1; LAD); type: cell-based; settings: RFU of compound / RFU of THI0349, both at the same concentration
T2 construct: The Jurkat (VCAM-1 assays) and HSB (ICAM-1 assays) cell lines were obtained from American Type Culture Collection; endogenous in cells; host or cells: HSB (ATCC)
T2 sequence (P20701 26-1170): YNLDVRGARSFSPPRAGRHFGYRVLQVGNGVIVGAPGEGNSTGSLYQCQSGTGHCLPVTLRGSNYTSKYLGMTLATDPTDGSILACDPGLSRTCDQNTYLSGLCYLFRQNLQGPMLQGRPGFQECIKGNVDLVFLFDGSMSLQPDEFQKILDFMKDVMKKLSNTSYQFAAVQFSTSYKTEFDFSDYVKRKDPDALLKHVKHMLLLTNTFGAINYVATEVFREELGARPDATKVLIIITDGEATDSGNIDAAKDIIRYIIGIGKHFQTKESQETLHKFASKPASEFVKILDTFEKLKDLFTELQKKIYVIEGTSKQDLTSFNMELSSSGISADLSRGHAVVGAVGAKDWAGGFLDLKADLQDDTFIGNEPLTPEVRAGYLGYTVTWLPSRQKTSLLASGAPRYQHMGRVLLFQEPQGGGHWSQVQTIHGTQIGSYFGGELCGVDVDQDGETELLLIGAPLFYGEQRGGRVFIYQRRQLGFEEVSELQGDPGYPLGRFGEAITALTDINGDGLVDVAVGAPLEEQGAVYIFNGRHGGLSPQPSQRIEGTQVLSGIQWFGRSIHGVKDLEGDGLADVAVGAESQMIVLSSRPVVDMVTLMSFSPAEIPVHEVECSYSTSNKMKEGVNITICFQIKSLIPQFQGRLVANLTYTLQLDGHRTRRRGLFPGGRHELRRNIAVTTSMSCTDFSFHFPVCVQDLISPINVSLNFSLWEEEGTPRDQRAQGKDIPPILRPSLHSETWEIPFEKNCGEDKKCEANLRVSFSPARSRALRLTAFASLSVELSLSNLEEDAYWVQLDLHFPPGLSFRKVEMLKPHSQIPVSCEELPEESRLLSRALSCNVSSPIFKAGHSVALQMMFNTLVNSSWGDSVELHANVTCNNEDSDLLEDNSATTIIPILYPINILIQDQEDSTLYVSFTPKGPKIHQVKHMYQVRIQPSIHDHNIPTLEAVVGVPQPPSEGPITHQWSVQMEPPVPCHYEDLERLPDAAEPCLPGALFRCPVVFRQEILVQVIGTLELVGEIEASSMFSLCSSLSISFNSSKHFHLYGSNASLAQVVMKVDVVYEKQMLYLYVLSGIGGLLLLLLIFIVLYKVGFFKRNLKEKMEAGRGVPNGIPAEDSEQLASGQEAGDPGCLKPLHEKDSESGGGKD
T2 sequence (P05107 23-769): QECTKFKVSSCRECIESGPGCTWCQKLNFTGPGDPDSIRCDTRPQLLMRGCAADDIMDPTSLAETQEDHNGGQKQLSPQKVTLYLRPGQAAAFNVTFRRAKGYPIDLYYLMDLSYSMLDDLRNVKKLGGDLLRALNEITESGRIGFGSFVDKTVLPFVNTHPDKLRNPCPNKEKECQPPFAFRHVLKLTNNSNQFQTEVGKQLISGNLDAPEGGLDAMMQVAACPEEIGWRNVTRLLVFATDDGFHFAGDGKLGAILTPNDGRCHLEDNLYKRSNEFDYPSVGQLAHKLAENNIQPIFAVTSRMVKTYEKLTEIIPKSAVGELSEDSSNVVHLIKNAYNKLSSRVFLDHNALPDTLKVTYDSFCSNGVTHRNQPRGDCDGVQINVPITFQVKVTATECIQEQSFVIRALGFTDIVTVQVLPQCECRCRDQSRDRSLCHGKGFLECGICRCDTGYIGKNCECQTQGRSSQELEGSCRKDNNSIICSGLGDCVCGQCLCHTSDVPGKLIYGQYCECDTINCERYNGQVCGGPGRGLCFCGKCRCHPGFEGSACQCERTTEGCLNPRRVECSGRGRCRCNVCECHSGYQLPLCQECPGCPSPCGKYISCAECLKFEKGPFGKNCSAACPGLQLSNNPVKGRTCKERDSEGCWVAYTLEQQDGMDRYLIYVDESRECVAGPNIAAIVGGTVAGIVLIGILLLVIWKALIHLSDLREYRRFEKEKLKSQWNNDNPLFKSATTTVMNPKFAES
Description: as §1, §2
In relation to LAD (Leukocyte Adhesion Deficiency), LFA-1 ratios are determined by dividing the relative fluorescence units (RFU) of each compound at a concentration of 3 μM over that of the reference standard of THI0349, also at 3 μM, (RFU Compound/RFU of THI0349). Log Ps were calculated by either Chemdraw® version 12 (CambridgeSoft) or ACD/Chemsketch® (ACD/Labs).

Structure (SMILES)	Group against VCAM [1]	LAD Raw Fluorescence Units against LFA-1; Dose 3 µM; Ratio of raw counts Compound/THI0349 [2]
COc1cccc(CN(Cc2cccc(OC)c2)c2nc(COCCOCCOc3ccccc3)cs2)c1 [Compound 43, N,N-bis(3-methoxybenzyl)-4-((2-(2-phenoxyethoxy)ethoxy)methyl)thiazol-2-amine]	I (Group I maintains at least the same potency or better up to more than twice that of the EC50 of THI0349 ran on the same plate)	0.80
COCCOc1cccc(CN(Cc2cccc(OCCOC)c2)c2nc(C)cs2)c1 [Compound 30, N,N-bis(3-(2-methoxyethoxy)benzyl)-4-methylthiazol-2-amine]	III (Group III more than five times the EC50 of THI0349)	1.2
COc1cccc(COCc2csc(N(Cc3cccc(OC)c3)Cc3cccc(OC)c3)n2)c1 [Compound 38, N,N-bis(3-methoxybenzyl)-4-((3-methoxybenzyloxy)methyl)thiazol-2-amine]	III (Group III more than five times the EC50 of THI0349)	0.16
COc1cccc(CN(Cc2cccc(OC)c2)c2nc(COCCOCCOc3cccc(OC)c3)cs2)c1 [Compound 42, N,N-bis(3-methoxybenzyl)-4-((2-(2-(3-methoxyphenoxy)ethoxy)ethoxy)methyl)thiazol-2-amine]	I (Group I maintains at least the same potency or better up to more than twice that of the EC50 of THI0349 ran on the same plate)	1.6
CCOC(=O)c1csc(N(Cc2cccc(OC)c2)Cc2cccc(-n3cccn3)c2)n1 [Compound 119, ethyl 2-((3-(1H-pyrazol-1-yl)benzyl)(3-methoxybenzyl)amino)thiazole-4-carboxylate]	II (Group II is more than twice that of THI0349 but less than five times THI0349's EC50)	0.2
COc1cccc(CN(Cc2cccc(OC)c2)c2nc3c(s2)CN(C(=O)OC(C)(C)C)CC3)c1 [Compound 70, tert-butyl 2-(bis(3-methoxybenzyl)amino)-6,7-dihydrothiazolo[5,4-c]pyridine-5(4H)-carboxylate]	III (Group III more than five times the EC50 of THI0349)	0.14
COc1ccc(CCOCc2csc(N(Cc3cccc(OC)c3)Cc3cccc(OC)c3)n2)cc1 [Compound 40, N,N-bis(3-methoxybenzyl)-4-((4-methoxyphenethoxy)methyl)thiazol-2-amine]	III (Group III more than five times the EC50 of THI0349)	0.4
COc1cccc(CNC(=O)c2coc(N(Cc3cccc(OC)c3)Cc3cccc(OC)c3)n2)c1 [Compound 18, 2-(bis(3-methoxybenzyl)amino)-N-(3-methoxybenzyl)oxazole-4-carboxamide]	II (Group II is more than twice that of THI0349 but less than five times THI0349's EC50)	0.17
CCOC(=O)c1csc(N(Cc2ccc(-n3ccnc3)cc2)Cc2cccc(OC)c2)n1 [Compound 113, ethyl 2-((4-(1H-imidazol-1-yl)benzyl)(3-methoxybenzyl)amino)thiazole-4-carboxylate]	II (Group II is more than twice that of THI0349 but less than five times THI0349's EC50)	0.64
COc1ccc(CN(Cc2ccc(OC)cc2)c2nc(CO)co2)cc1 [Compound 26, (2-(bis(4-methoxybenzyl)amino)oxazol-4-yl)methanol]	I (Group I maintains at least the same potency or better up to more than twice that of the EC50 of THI0349 ran on the same plate)	0.79
COc1ccc(CN(Cc2ccc(OC)cc2)c2nc(COCCOCCO)cs2)cc1 [Compound 34, 2-(2-((2-(bis(4-methoxybenzyl)amino)thiazol-4-yl)methoxy)ethoxy)ethanol]	III (Group III more than five times the EC50 of THI0349)	0.34
COc1cccc(CN(Cc2cccc(OC)c2)c2nc(COCCOCCOc3ccc(N(C)C)cc3)cs2)c1 [Compound 46, 4-((2-(2-(4-(dimethylamino)phenoxy)ethoxy)ethoxy)methyl)-N,N-bis(3-methoxybenzyl)thiazol-2-amine]	I (Group I maintains at least the same potency or better up to more than twice that of the EC50 of THI0349 ran on the same plate)	1.5
COc1cccc(COCCOCc2csc(N(Cc3cccc(OC)c3)Cc3cccc(OC)c3)n2)c1 [Compound 57, N,N-bis(3-methoxybenzyl)-4-((2-(3-methoxybenzyloxy)ethoxy)methyl)thiazol-2-amine]	I (Group I maintains at least the same potency or better up to more than twice that of the EC50 of THI0349 ran on the same plate)	0.25
COc1cccc(COCCOCCOCc2csc(N(Cc3cccc(OC)c3)Cc3cccc(OC)c3)n2)c1 [Compound 55, N,N-bis(3-methoxybenzyl)-4-((2-(2-((3-methoxybenzyl)oxy)ethoxy)ethoxy)methyl)thiazol-2-amine]	I (Group I maintains at least the same potency or better up to more than twice that of the EC50 of THI0349 ran on the same plate)	1.1
COc1cccc(CN(Cc2ccc(-n3cccn3)cc2)c2nc(CN3CCOCC3)cs2)c1 [Compound 75, N-(4-(1H-pyrazol-1-yl)benzyl)-N-(3-methoxybenzyl)-4-(morpholinomethyl)thiazol-2-amine]	I (Group I maintains at least the same potency or better up to more than twice that of the EC50 of THI0349 ran on the same plate)	0.59
COc1cccc(CN(Cc2cccc(OC)c2)c2nc(COCCN(C)C)cs2)c1 [Compound 82, 4-((2-(dimethylamino)ethoxy)methyl)-N,N-bis(3-methoxybenzyl)thiazol-2-amine]	II (Group II is more than twice that of THI0349 but less than five times THI0349's EC50)	0.05
COc1cccc(CN(Cc2cccc(OC)c2)c2nc(COCCOCCOc3ccc(Cl)cc3)cs2)c1 [Compound 44, 4-((2-(2-(4-chlorophenoxy)ethoxy)ethoxy)methyl)-N,N-bis(3-methoxybenzyl)thiazol-2-amine]	I (Group I maintains at least the same potency or better up to more than twice that of the EC50 of THI0349 ran on the same plate)	0.77
